Source: patent publication US12419888B2, “Methods of treating elevated plasma cholesterol” (INSTITUT DE CARDIOLOGIE DE MONTREAL, priority 2020, dated 2025)

Legend:
[1] = test system: LDLR protein levels in HepG2 cells; assay: Western blot analysis of relative LDLR protein levels in HepG2 cells after treatment; type: cell-based, human; settings: HepG2 cells incubated overnight with compound, 0.2 μM to 20 μM
Experimental: Cell culture, treatments and cell viability assay. For phenotypic screening of PCSK9 modulators and/or LDLR small molecule inducers, human HepG2 cells were incubated overnight in conditioned media containing chemical compounds resuspended in DMSO at concentration ranging from 0.2 μM to 20 μM. […] Following incubation, media have been replaced and cells incubated for 4 h with 100 μL of phenol red-free DMEM containing 0.5 mg/mL of MTT (3-[4,5-dimethylthiazol-2-yl]-2,5-diphenyltetrazolium bromide; thiazolyl blue; catalog no. M5655, Sigma-Aldrich), following manufacturer's instructions.
Western Blot Analysis, Immunocytochemistry and LDLR Activity Assay. Following incubation, cells were washed three times in phosphate-buffered saline (PBS) and lysed in radioimmune precipitation assay buffer (50 mM Tris/HCl, pH 8.0, 1% (v/v) Nonidet P-40, 0.5% sodium deoxycholate, 150 mM NaCl, and 0.1% (v/v) SDS) supplemented with a complete protease inhibitor mixture (catalog no. 11 697 498 001, Roche Applied Science). Proteins were separated by SDS polyacrylamide gel electrophoresis, blotted on nitrocellulose membranes (Bio-Rad), blocked incubated with indicated antibodies as described (Poirier S, et al., Cell Rep, 2015). For immunocytochemistry analysis, cells were permeabilized or not with 0.1% Triton X-100/PBS for 10 min, and incubated with 150 mM glycine, blocked and incubated with indicated primary and secondary antibodies. Immunofluorescence analyses were performed with an Olympus FluoView FV10i confocal microscope (Poirier et al., Cell Rep. 2015; 13(10):2064-2071). For LDLR activity assay, HepG2 cells were incubated overnight without or with a given compound in the presence of 5 μg/ml fluorescent labelled DiI-LDL (Alfa Aesar, Cat. #J65330) and co-stained for LDLR if applicable, as described (Poirier et al., J Biol Chem. 2009; 284(42):28856-28864). Immunofluorescence analyses were performed with an Olympus FluoView FV10i confocal microscope.

Biotinylated PCSK9 = Biotinylated PCSK9 (Homo sapiens (Human), UniProt Q8NBP7); assay: Binding affinity of SHIM compounds to PCSK9 by surface plasmon resonance spectroscopy (Biacore T200); settings: SPR, range tested 0.5-10 uM, 1:1 Langmuir model, NB = no binding detected in the tested range; for Kd: read-out: KD - equilibrium dissociation constant; for kon: read-out: ka - association rate constant; for koff: read-out: kd - dissociation rate constant
Chain of Biotinylated PCSK9 (Q8NBP7 153-692): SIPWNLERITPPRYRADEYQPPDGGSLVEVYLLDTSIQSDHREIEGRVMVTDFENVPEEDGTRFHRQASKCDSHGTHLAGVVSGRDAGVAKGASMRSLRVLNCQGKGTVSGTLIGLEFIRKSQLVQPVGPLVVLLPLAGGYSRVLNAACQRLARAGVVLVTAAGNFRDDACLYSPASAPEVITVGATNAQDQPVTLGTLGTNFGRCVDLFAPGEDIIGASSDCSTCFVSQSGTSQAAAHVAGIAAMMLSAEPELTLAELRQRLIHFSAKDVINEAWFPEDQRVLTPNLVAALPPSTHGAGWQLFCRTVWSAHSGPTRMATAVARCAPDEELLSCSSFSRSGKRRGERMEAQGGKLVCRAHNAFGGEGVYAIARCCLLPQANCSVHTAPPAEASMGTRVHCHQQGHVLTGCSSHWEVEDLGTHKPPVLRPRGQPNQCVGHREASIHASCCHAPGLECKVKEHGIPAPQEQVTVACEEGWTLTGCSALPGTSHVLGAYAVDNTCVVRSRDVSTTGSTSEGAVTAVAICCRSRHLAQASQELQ
Experimental: Studies of SHIM compounds—PCSK9 interactions. […] Biotinylated PCSK9 (ACRO Biosystems) at 1 μg/mL has been captured on a chip on which streptavidin has been immobilized with amine-directed chemistry according to the manufacturer's instructions (6000 RU) to a density of 6000 RU in PBS-P ([…], 0.005% Tween 20, pH7.4) buffer with 1% DMSO. SHIMs at 10, 3.3, 1.1, 0.33 and 0.11 uM were injected at 30 uL/min. […] Double reference method of analysis was used with the reference channel containing a reference biotinylated protein captured at 6000 RU.

[2] = test system: hypercholesterolemic C57BL/6 Pcsk9 KO mice; assay: Efficacy and safety in hypercholesterolemic C57BL/6 Pcsk9 KO mice on Western diet, oral gavage; type: in vivo; settings: 40 mg/kg/day oral gavage for 10 days
Text: Animal studies. All animal studies were approved by the Montreal Heart Institute (MHI) Animal Care and Ethical committee. For in vivo proof-of-concept animal studies, wild-type C57BL/6 or Pcsk9 knockout male mice were fed on Western diet containing 48.5% w/w carbohydrate, 21.2% w/w fat, 17.3% w/w protein and 0.2% w/w cholesterol (catalog no. TD.88137, Envigo) for 14 days. Chemical compounds were mixed in DMSO/propylene glycol/water; 1:7:2 (v/v) and administered by oral gavage at 0 (vehicle) or 40 mg/kg/day for 10 days in mice on Western diet. Plasma lipoprotein cholesterol profiles were obtained from 100 μL of pooled plasma injected on a Superose 6 10/300 GL (catalog no. 17-5172-01, GE Life Sciences) and eluted with PBS at a flow rate of 0.1 mL per min at 4° C. mounted on a AKTA explorer system (GE Healthcare). Serum aspartate aminotransferase (AST), alanine transaminase (ALT), insulin, glucose and complete hematology tests were measured by the Montreal Heart Institute biochemical clinical chemistry platform according to manufacturer's recommendations.

Structure (SMILES) | LDLR Fold (relative LDLR protein levels) [1] [Fold] | Kd (Biotinylated PCSK9) [µM] | kon (Biotinylated PCSK9) [M⁻¹ s⁻¹] | koff (Biotinylated PCSK9) [s⁻¹] | further results
C[C@@]1(c2ccc3ccccc3c2)NC(=O)N(CC(=O)N2CCC(C(=O)N3CCCCCC3)CC2)C1=O (stereo in doubt) [Compound 16, 3-{2-[4-(azepane-1-carbonyl)piperidin-1-yl]-2-oxoethyl}-5-methyl-5-(naphthalen-2-yl)imidazolidine-2,4-dione] | 2.1 ± 1.2 | 3.88 | 22800 | 0.09 | 
CC1(c2ccc3ccccc3c2)NC(=O)N(CC(=O)N2CCC(C(=O)Nc3ccccc3)CC2)C1=O (centres unmarked) [Compound 14, 1-[2-[4-methyl-4-(2-naphthyl)-2,5-dioxo-imidazolidin-1-yl]acetyl]-N-phenyl-piperidine-4-carboxamide] | 2.0 ± 0.7 | 13.8 | 14500 | 0.19 | 
O=C(c1csc(-c2cccs2)n1)N1CCc2c([nH]c3ccccc23)C1c1ccccn1 (stereo not drawn) [Compound 26, 1-(2-pyridinyl)-2-{[2-(2-thienyl)-1,3-thiazol-4-yl]carbonyl}-2,3,4,9-tetrahydro-1H-beta-carboline] | 1.9 ± 0.5 | 11 | 104000 | 1.14 | ALT [2]: 24 U/L; AST [2]: 67 U/L; Glucose [2]: 16.3 mmol/L; ΔBody Weight (D 10 − D 0) [2]: 99%; HDL-C ([2]; Western diet): 3.00 mmol/L; LDL-C (measured) ([2]; Western diet): 0.23 mmol/L; TC ([2]; Western diet): 3.03 mmol/L; TG ([2]; Western diet): 0.90 mmol/L; nonHDL-C ([2]; Western diet): 0.04 mmol/L; LDL-C (pooled plasma) (FPLC AUC) (Fold Change %) ([2]; pooled plasma FPLC): −61%
Cc1ccc(-c2nnc(N3CCN(C(=O)Cn4c(=O)n(C)c5ccccc54)CC3)c3ccccc23)cc1 [Compound 37, 1-methyl-3-(2-{4-[4-(4-methylphenyl)phthalazin-1-yl]piperazin-1-yl}-2-oxoethyl)-2,3-dihydro-1H-1,3-benzodiazol-2-one] | 1.0 |  |  |  | 
O=C(CN1C(=O)c2ccccc2C1=O)N1CCN(c2nnc(-c3ccccc3)c3ccccc23)CC1 [Compound 38, 2-{2-oxo-2-[4-(4-phenylphthalazin-1-yl)piperazin-1-yl]ethyl}-2,3-dihydro-1H-isoindole-1,3-dione] | 0.9 |  |  |  | 
Cc1ccc(-c2nnc(N3CCN(C(=O)c4ccco4)CC3)c3ccccc23)cc1 [Compound 39, 1-[4-(furan-2-carbonyl)piperazin-1-yl]-4-(4-methylphenyl)phthalazine] | 0.9 |  |  |  | 
CC1CCN(CC(=O)N2CCN(c3nnc(-c4ccccc4)c4ccccc34)CC2)CC1 [Compound 40, 2-(4-methylpiperidin-1-yl)-1-[4-(4-phenylphthalazin-1-yl)piperazin-1-yl]ethan-1-one] | 0.9 |  |  |  | 
c1ccc2c(N3CCN(Cc4ccc5c(c4)OCO5)CC3)nnc(Cc3ccncc3)c2c1 [Compound 41, 1-{4-[(2H-1,3-benzodioxol-5-yl)methyl]piperazin-1-yl}-4-[(pyridin-4-yl)methyl]phthalazine] | 0.7 |  |  |  | 
O=C(CN1CCOCC1)N1CCN(c2nnc(-c3ccccc3)c3ccccc23)CC1 [Compound 43, 2-(morpholin-4-yl)-1-[4-(4-phenylphthalazin-1-yl)piperazin-1-yl]ethan-1-one] | 0.9 |  |  |  | 
Cc1cc(C(=O)N2CCCC(C(=O)Nc3ccccc3)C2)c2ccccc2n1 (centres unmarked) [Compound 51, 1-(2-methylquinoline-4-carbonyl)-N-phenylpiperidine-3-carboxamide] | 1.2 |  |  |  | 
